These results are taken from publication PMC5539068, “Structural optimization and evaluation of novel 2-pyrrolidone-fused (2-oxoindolin-3-ylidene)methylpyrrole derivatives as potential VEGFR-2/PDGFRβ inhibitors” (Chemistry Central Journal, 2017).

Each structure is given as a SMILES string. Read-outs that look alike come from different tables or passages of the source.

The test system of data set [1] is HCT116 cells. To be noted: VEGFR-1/2 inhibitor; cited from earlier work.
Another data set has as its system NCI-H460 cells. As to the kind of experiment: Cell proliferation assay (MTT), NCI-H460. To be noted: for IC50: Homo sapiens, NCI-H460, 72 h, read-out: IC50 NCI-H460; for selective index (SI) NCI-H460: versus Detroit 551.
The next data set addresses T1, Aurora A (Homo sapiens, UniProt O14965).
T1 sequence (O14965 1-403): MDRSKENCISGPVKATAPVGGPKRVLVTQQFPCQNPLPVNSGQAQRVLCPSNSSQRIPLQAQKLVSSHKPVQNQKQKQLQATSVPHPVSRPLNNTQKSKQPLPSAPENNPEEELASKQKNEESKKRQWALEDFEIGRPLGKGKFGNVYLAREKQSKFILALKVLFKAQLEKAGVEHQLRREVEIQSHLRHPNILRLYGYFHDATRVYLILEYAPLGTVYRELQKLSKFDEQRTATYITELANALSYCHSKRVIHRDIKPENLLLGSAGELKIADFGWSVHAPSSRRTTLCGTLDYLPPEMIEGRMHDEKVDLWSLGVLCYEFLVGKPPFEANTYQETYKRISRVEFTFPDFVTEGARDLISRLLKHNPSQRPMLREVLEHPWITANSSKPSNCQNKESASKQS
In words: In-vitro kinase assay (HotSpot, 33P), Aurora A. The following applies: ATP 10.0 μM; for % inhibition of Aurora A at 1.0 μM: 1.0 μM compound; for inhibition at 1 µM: read-out: % inhibition of Aurora A at 1.0 μM, 1.0 μM compound.

The subject of the next data set is 786-O cells. As to the kind of experiment: Cell proliferation assay (MTT), 786-O. The following applies: for IC50: Homo sapiens, 786-0, 72 h, read-out: IC50 786-O; for selective index (SI) 786-O: versus Detroit 551.
The subject of data set [2] is HCT116 cells. As to the method: (§1) Cells were seeded at 5000 cells/well on a 96-well plate for 24 h. The indicated compounds in different concentrations (100 μl) were added to cells. After 6 h, old medium was aspirated, and the cells were washed three times with PBS. WST-8 (Dojindo, Rockville, MD, USA) (10 µl) was added to each well, and the absorbance of the plate was recorded at 450 nm on a microplate spectrophotometer (Thermo Fisher Scientific, Waltham, MA, USA).

In data set [3] the test system is Detroit 551 cells. The protocol: as §1
The next data set addresses VEGFR-2 (Homo sapiens, UniProt P35968). In words: In-vitro kinase assay (HotSpot, 33P), VEGFR-2. To be noted: for inhibition at 0.08 µM: read-out: % inhibition of VEGFR-2 at 80 nM.
Data set [4] deals with Detroit 551 cells. As to the kind of experiment: Cell proliferation assay (MTT), normal fibroblast Detroit 551. To be noted: Homo sapiens, Detroit 551, 72 h, read-out: IC50 Detroit 551.
Experimental: (§2) Serial dilutions of indicated compounds were added and incubated for additional 72 h. At the end of the incubation, cell viability was determined by the 3-(4,5-dimethylthiazol-2-yl)-2,5-diphenyl tetrazolium bromide (MTT) assay. The MTT formazan crystals formed were dissolved in DMSO, and the absorbance at 570 nm was recorded using a microplate spectrophotometer (Thermo Fisher Scientific, Waltham, MA, USA) [46].
Data set [5] deals with HCT116 cells. In words: Cell proliferation assay (MTT), HCT116. To be noted: for IC50: Homo sapiens, HCT-116, 72 h, read-out: IC50 HCT116; for selective index (SI) HCT116: versus Detroit 551.
Experimental: as §2
In data set [6] the test system is HCT116 cells. As to the kind of experiment: Cell cycle analysis by image cytometry (DAPI). To be noted: 24 h, preliminary.
Experimental: Cell cycle profiles of HCT116 cells were determined with an NC-3000 image cytometer (ChemoMetec, Allerod, Denmark) in accordance with manufacturer’s protocol. Briefly, cells were seeded at 200,000 cells/well on a 6-well plate for 24 h. […] After incubation for 24 h, 100,000 cells were harvested and centrifuged at 400 g at room temperature for 5 min, washed once with PBS (50 μM), and resuspended in lysis buffer (50 μl) (ChemoMetec, Allerod, Denmark) containing 10 μg/ml of 2-(4-amidinophenyl)-1H-indole-6-carboxamidine (DAPI, ChemoMetec, Allerod, Denmark). […] The cellular fluorescence was measured with an NC-3000 image cytometer using NC-SlideA8 (ChemoMetec, Allerod, Denmark). The NC-3000 software (ChemoMetec, Allerod, Denmark) was used for image acquisition, image analysis and quantification, and data visualization.
The test system of the next data set is HUVEC cells. In words: In-vitro VEGF-induced Matrigel tube formation assay. It is filed as cell-based, human. To be noted: for IC50: Homo sapiens, HUVEC, VEGF 10 ng/ml, Matrigel, 6 h, read-out: IC50 Area (in vitro tube formation); for potency in inhibiting in vitro tube formation relative to sunitinib in terms of IC50: versus sunitinib. As to the method: The in vitro tube formation assay was assessed using ibidi μ-Slides (15-well, ibidi GmbH, Martinsried, Germany) in accordance with manufacturer’s protocol. Briefly, growth factor reduced Matrigel (10 μl) (Sigma, St. Louis MO) was added to the inner well of ibidi μ-Slides, and incubated at 37 °C for 1 h. […] 10,000 HUVEC cells in 50 μl of above growth medium was added to Matrigel (Sigma, St. Louis MO, USA) coated ibidi μ-Slides. After 6 h of incubation at 37 °C, the supernatant was discarded, and 50 μl of serum-free medium with diluted calcein AM (6.25 μg/ml) was added to above ibidi μ-Slides. After incubation in the dark at room temperature for 30 min, the μ-Slides were washed with PBS (50 μl) and fluorescence pictures were taken at 485 nm with a Leica DM1000 LED microscope (Leica Microsystems, Wetzlar, Hessen, Germany).

Another data set concerns the target PDGFRβ (Homo sapiens, UniProt P09619). As to the kind of experiment: In-vitro kinase assay (HotSpot, 33P), PDGFRβ.
A short description of data set [7]: Preliminary pharmacokinetic studies. The following applies: no data shown.
For data set [8], the system named is patients with advanced colorectal cancer. Further details: method as in earlier work. To be noted: Phase IIb, cited from earlier work.

Chain of VEGFR-2 (P35968 20-1356): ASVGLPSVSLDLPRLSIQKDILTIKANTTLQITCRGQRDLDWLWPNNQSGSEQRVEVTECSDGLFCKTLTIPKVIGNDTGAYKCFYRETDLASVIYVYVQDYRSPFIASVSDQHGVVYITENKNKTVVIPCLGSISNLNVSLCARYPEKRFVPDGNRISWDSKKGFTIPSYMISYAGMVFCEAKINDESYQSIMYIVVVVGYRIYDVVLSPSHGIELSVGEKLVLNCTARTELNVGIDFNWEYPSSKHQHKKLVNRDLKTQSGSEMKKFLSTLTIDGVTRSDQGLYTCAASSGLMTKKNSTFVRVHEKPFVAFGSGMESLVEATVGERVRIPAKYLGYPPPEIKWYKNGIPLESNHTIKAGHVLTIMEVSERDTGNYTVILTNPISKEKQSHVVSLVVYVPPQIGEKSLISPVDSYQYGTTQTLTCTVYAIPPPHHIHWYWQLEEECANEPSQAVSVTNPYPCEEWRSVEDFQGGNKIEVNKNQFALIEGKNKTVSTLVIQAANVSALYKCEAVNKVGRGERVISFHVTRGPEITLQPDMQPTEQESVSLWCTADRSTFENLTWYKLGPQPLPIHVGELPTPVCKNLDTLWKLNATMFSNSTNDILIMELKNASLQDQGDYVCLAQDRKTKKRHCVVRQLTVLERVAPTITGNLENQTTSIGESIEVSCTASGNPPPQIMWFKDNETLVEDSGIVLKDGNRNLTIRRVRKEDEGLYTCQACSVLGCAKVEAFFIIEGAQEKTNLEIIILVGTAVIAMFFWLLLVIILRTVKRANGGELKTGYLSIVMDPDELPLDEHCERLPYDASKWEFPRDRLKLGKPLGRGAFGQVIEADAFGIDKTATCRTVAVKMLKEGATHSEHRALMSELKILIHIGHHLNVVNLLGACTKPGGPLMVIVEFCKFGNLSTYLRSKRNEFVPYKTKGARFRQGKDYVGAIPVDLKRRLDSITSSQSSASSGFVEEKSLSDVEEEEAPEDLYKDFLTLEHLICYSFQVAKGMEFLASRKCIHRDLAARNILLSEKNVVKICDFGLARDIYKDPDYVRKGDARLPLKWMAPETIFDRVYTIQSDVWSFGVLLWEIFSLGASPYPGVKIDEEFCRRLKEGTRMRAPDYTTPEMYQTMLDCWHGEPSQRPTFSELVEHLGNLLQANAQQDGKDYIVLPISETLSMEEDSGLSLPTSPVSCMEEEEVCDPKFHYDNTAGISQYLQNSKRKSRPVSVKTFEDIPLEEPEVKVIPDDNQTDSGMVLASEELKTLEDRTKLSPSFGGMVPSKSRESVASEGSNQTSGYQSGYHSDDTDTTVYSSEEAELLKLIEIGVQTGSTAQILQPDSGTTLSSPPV
Chain of PDGFRβ (P09619 33-1106): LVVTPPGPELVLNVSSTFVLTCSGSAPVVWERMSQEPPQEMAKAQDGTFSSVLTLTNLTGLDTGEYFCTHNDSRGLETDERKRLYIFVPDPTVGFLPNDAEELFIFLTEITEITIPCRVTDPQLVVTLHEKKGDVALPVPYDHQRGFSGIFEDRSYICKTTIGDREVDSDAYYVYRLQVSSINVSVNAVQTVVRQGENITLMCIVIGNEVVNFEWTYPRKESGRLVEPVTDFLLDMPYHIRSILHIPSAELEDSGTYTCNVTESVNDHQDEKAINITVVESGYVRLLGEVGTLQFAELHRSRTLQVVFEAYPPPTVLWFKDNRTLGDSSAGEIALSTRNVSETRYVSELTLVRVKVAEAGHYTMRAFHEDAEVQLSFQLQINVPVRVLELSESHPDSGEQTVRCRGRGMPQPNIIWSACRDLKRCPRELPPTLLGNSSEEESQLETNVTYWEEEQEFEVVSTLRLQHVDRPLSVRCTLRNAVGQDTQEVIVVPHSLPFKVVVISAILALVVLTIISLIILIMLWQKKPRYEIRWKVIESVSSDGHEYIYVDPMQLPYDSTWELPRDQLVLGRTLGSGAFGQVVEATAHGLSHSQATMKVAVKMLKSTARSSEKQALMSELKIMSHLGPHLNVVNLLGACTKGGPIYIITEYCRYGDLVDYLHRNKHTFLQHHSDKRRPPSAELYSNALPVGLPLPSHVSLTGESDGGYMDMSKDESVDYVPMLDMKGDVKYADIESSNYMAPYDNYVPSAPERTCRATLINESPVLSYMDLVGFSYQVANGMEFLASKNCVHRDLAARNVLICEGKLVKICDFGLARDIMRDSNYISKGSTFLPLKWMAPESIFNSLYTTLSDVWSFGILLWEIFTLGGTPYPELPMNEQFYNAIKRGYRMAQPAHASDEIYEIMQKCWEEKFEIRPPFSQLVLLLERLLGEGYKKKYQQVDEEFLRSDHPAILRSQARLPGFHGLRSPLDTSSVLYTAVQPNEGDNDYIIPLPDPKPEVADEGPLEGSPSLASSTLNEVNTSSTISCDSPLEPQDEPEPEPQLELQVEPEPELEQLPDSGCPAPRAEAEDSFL
Experimental for 786-O cells: as §2
Experimental for Aurora A: (§3) Briefly, specific kinase and substrate and required cofactors were prepared in reaction buffer. Test compounds were added to the reaction and after 20 min a mixture of ATP (Sigma, St. Louis MO, USA) and ^33P ATP (Perkin Elmer, Waltham MA, USA) was added to make a final concentration of 10.0 μM. Reactions were stood at room temperature for 120 min, and then the reactions were spotted onto a P81 ion exchange filter paper (Whatman Inc., Piscataway, NJ, USA). Unbound phosphate was removed by extensive washing of filters in 0.1% phosphoric acid. Kinase activity data was reported as the percent remaining kinase activity in test compounds compared to the solvent control dimethyl sulfoxide (DMSO).
Experimental for NCI-H460 cells: as §2
Experimental for VEGFR-2: Next, the VEGFR-2 phosphorylation inhibitory activities of the newly synthesized compounds were evaluated.
as §3

For `O=C(Nc1cccc(C(F)(F)F)c1)c1ccccc1NCc1ccncc1` [AAL993], the “proliferation of HCT116 cells” value with HCT116 cells [1] is listed as “significantly decreases proliferation”.

As to `CCN(CC)CCN1Cc2[nH]c(/C=C3\C(=O)Nc4ccc(S(=O)(=O)N(CCCl)CCCl)cc43)c(C)c2C1=O` [Compound 7, (Z)-N,N-Bis(2-chloroethyl)-3-((5-(2-(diethylamino)ethyl)-3-methyl-4-oxo-1,4,5,6-tetrahydropyrrolo[3,4-b]pyrrol-2-yl)methylene)-2-oxoindoline-5-sulfonamide], the half-inhibitory concentration (IC50) in the data set with NCI-H460 cells is greater than 10 µM; in the data set with 786-O cells, greater than 10 µM; against VEGFR-2, 0.0237 µM; with Detroit 551 cells [4] it was 6.06 ± 0.4 µM; with HCT116 cells [5], 3.65 ± 0.19 µM; in the data set on HUVEC cells it was 0.76 ± 0.11 µM. The IC50 against PDGFRβ amounted to 0.0632 µM. Besides, the “selective index (SI) NCI-H460” value in the data set on NCI-H460 cells is less than 0.61. The “% inhibition of Aurora A at 1.0 μM” value on Aurora A is given as 94.4%. In addition, on Aurora A, the inhibition at 1 µM was determined as 92.9%. The “selective index (SI) 786-O” value with 786-O cells is recorded as less than 0.61. For the same molecule, the “acute cytotoxicity, HCT116” value in the data set with HCT116 cells [2] (10 μM, 6 h, WST-8) is listed as “neither our compounds nor sunitinib had acute cytotoxicity”. In addition, the “acute cytotoxicity, Detroit 551” value with Detroit 551 cells [3] (10 μM, 6 h, WST-8) is “neither our compounds nor sunitinib had acute cytotoxicity”. At VEGFR-2, the inhibition at 0.08 µM is 46%. For the same molecule, the “selective index (SI) HCT116” value in the data set on HCT116 cells [5] is 1.66. In addition, the “cell cycle profile effect” value with HCT116 cells [6] (5.0 μM) is “increase in polyploid cells”. Further, in the data set with HUVEC cells, the “potency in inhibiting in vitro tube formation relative to sunitinib in terms of IC50” value is given as “twofold higher”.

Take `CCN(CC)CCN1Cc2[nH]c(/C=C3\C(=O)Nc4ccc(OC)cc43)c(C)c2C1=O` [Compound 13, (Z)-3-((5-(2-(diethylamino)ethyl)-3-methyl-4-oxo-1,4,5,6-tetrahydropyrrolo[3,4-b]pyrrol-2-yl)methylene)-5-methoxyindolin-2-one]: the melting point is 214 to 216 °C. Also, in the data set on NCI-H460 cells, the IC50 came to 6.37 ± 1.09 µM and the “selective index (SI) NCI-H460” value is reported as greater than 1.57. Also, at Aurora A, the “% inhibition of Aurora A at 1.0 μM” value stood at 92.9% and the inhibition at 1 µM turned out to be 94.4%. Besides, in the data set with 786-O cells, the IC50 amounted to 7.86 ± 0.3 µM and the “selective index (SI) 786-O” value is greater than 1.27. For the same molecule, on VEGFR-2, inhibition was half-maximal at 0.0478 µM (IC50) and the inhibition at 0.08 µM was 41%. The IC50 in the data set on Detroit 551 cells [4] is greater than 10 µM. Moreover, in the data set on HCT116 cells [5], the half-maximal inhibitory concentration (IC50) came to 3.06 ± 0.67 µM and the “selective index (SI) HCT116” value is reported as greater than 3.27. Further, the “cell cycle profile effect” value with HCT116 cells [6] (3.0 μM) was “increase in polyploid cells”. Further, in the data set on HUVEC cells, the IC50 was 0.74 ± 0.16 µM and the “potency in inhibiting in vitro tube formation relative to sunitinib in terms of IC50” value is given as “twofold higher”. At PDGFRβ, this molecule returned an IC50 of 0.0762 µM.

Molecule `CCN(CC)CCN1Cc2[nH]c(/C=C3\C(=O)Nc4ccc(O)cc43)c(C)c2C1=O` [Compound 14, (Z)-3-((5-(2-(diethylamino)ethyl)-3-methyl-4-oxo-1,4,5,6-tetrahydropyrrolo[3,4-b]pyrrol-2-yl)methylene)-5-hydroxyindolin-2-one] returned a melting point of 240 to 242 °C. In the data set with NCI-H460 cells, the 50% inhibitory concentration (IC50) was greater than 10 µM. Moreover, at Aurora A, the inhibition at 1 µM turned out to be 93.6%. In addition, the IC50 with 786-O cells was greater than 10 µM. Also, on VEGFR-2, the midpoint of inhibition, the IC50, lay at 0.0259 µM and the inhibition at 0.08 µM is 58%. Also, in data set [7], the “preliminary results in pharmacokinetic studies” value was “satisfactory”. Besides, the concentration for half-maximal inhibition (IC50) in the data set on Detroit 551 cells [4] was greater than 10 µM. For the same molecule, the 50% inhibitory concentration (IC50) in the data set on HCT116 cells [5] was determined as 2.83 ± 0.4 µM. Moreover, the “cell cycle profile effect” value with HCT116 cells [6] (3.0 μM) is “G0/G1 cell cycle arrest”. In addition, in the data set on HUVEC cells, the half-maximal inhibitory concentration (IC50) worked out at 0.62 ± 0.07 µM and the “potency in inhibiting in vitro tube formation relative to sunitinib in terms of IC50” value is on record as “roughly 2.5 fold”. This molecule also gave a half-maximal inhibitory concentration (IC50) against PDGFRβ of 0.0285 µM.

Take `CCN(CC)CCN1Cc2[nH]c(/C=C3\C(=O)Nc4ccc(S)cc43)c(C)c2C1=O` [Compound 15, (Z)-3-((5-(2-(diethylamino)ethyl)-3-methyl-4-oxo-1,4,5,6-tetrahydropyrrolo[3,4-b]pyrrol-2-yl)methylene)-5-mercaptoindolin-2-one]: the melting point is 257 to 260 °C. For the same molecule, the IC50 with NCI-H460 cells is greater than 10 µM. On Aurora A, the “% inhibition of Aurora A at 1.0 μM” value worked out at 96.4% and the inhibition at 1 µM was found to be 93.6%. In the data set on 786-O cells, the IC50 was greater than 10 µM. At VEGFR-2, 0.0146 µM corresponded to half-maximal inhibition (IC50) and the inhibition at 0.08 µM was found to be 57%. Further, in data set [7], the “preliminary results in pharmacokinetic studies” value was “satisfactory”. Further, in the data set with Detroit 551 cells [4], the 50% inhibitory concentration (IC50) is greater than 10 µM. In the data set on HCT116 cells [5], the half-maximal inhibitory concentration (IC50) was found to be 2.34 ± 0.2 µM. Besides, in the data set on HCT116 cells [6] (3.0 μM), the “cell cycle profile effect” value is “increase in tetraploid cells”. Moreover, the IC50 in the data set with HUVEC cells worked out at 0.53 ± 0.11 µM. The IC50 at PDGFRβ amounted to 0.0121 µM.

In the case of `CCN(CC)CCNC(=O)c1c(C)[nH]c(/C=C2\C(=O)Nc3ccc(F)cc32)c1C` [Sunitinib, sunitinib, reference compound], the IC50 stood at 7.51 ± 0.78 µM in the data set on NCI-H460 cells; 7.89 ± 0.6 µM in the data set on 786-O cells; 9.48 ± 0.18 µM in the data set on Detroit 551 cells [4]; 4.6 ± 0.23 µM in the data set on HCT116 cells [5]; 1.54 ± 0.08 µM with HUVEC cells. Besides, the inhibition at 1 µM at Aurora A came out at 50.7%. In addition, in the data set on HCT116 cells [2], the “acute cytotoxicity, HCT116” value is on record as “neither our compounds nor sunitinib had acute cytotoxicity”. For the same molecule, in the data set with Detroit 551 cells [3], the “acute cytotoxicity, Detroit 551” value was “neither our compounds nor sunitinib had acute cytotoxicity”. Further, in the data set with HCT116 cells [6] (5.0 μM), the “cell cycle profile effect” value was “G0/G1 cell cycle arrest”.

`CCN(CC)CCN1CCc2[nH]c(/C=C3\C(=O)Nc4ccc(F)cc43)c(C)c2C1=O` [famitinib]: the “progression free survival (PFS)” value in [8] (compared to placebo) was “significantly improved progression free survival (PFS)”. The toxicity entry in data set [8] is “manageable”.
